# Patent publication US8227422B2, “Peptides and compounds that bind to a receptor” (Glaxosmithkline LLC, priority 1996, dated 2012)
# Read-outs that look alike come from different tables or passages of the source. Where a SMILES comes first, the peptide text is derived from it.
# Tests used:
# [1] = target: T1, human TPO-R (transfected Ba/F3 cells) (Homo sapiens, UniProt P40238); experiment: Thrombopoietin dependent cell proliferation assay (MTT), TPO-R transfected Ba/F3 cells; type: cell-based
# T1 construct: Murine IL-3 dependent Ba/F3 cells were transfected with full length human TPO-R; expressed in transfected cells; host or cells: murine Ba/F3 cells
# T1 sequence (P40238 26-635): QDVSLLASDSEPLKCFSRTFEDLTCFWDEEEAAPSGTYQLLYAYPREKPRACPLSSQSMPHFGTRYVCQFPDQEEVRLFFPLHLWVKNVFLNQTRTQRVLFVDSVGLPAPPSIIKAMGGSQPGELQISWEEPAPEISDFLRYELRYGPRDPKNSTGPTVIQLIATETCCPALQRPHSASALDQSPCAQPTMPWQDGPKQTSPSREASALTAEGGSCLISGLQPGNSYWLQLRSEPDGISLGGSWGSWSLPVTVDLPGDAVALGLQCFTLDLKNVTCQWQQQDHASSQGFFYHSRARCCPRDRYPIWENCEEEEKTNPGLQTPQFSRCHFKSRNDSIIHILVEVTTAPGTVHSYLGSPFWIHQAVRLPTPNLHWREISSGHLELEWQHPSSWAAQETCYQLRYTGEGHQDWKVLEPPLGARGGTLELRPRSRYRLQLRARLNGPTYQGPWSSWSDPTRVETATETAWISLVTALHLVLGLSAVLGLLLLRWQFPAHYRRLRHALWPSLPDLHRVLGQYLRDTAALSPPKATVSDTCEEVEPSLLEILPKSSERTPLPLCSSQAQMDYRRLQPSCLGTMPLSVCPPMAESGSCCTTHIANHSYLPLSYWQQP
# Protocol: Bioactivity of the peptides can be measured using a thrombopoietin dependent cell proliferation assay. Murine IL-3 dependent Ba/F3 cells were transfected with full length human TPO-R. In the absence of IL-3 (WEHI-3 conditioned media), these cells are dependent on TPO for proliferation.
# The cells were grown in complete RPMI-10 media, containing 10% WEHI-3 conditioned media, then washed twice in PBS, resuspended in media which lacked WEHI-3 conditioned media, and added to wells containing dilutions of peptide or TPO at 2×10^4 cells/well. The cells were incubated for 48 hours at 37° C. in a humidified 5% CO2 atmosphere and metabolic activity was assayed by the reduction of MTT to formazan, with absorbance at 570 nm measured on an ELISA plate reader.
# TPO-R = target: T2, TPO-R (Homo sapiens, UniProt P40238); experiment: Competition binding assay (equilibrium binding ELISA, MBP-TPO156 tracer) on immobilized TPO-R
# T2 construct: made in house
# T2 sequence (P40238 26-491 limits assumed): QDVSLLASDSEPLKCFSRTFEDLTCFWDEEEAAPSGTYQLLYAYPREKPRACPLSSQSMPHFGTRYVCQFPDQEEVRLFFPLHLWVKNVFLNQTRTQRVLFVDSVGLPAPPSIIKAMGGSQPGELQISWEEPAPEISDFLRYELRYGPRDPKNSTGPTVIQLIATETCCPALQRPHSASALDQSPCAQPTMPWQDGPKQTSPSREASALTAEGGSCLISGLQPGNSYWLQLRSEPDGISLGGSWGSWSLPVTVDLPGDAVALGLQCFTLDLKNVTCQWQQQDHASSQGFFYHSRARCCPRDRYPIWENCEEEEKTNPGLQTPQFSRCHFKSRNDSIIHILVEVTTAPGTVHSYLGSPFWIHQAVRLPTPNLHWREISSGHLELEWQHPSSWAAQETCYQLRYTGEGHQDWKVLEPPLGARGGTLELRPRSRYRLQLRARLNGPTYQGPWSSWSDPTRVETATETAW
# Protocol: A variety of methods can be used to evaluate IC50 values. For example, an equilibrium binding ELISA assay, using either MBP-TPO or lacI-peptide tracer, was used to determine whether the peptides inhibit the binding of TPO to the extracellular domain of the TPO receptor. Typically, the IC50 value were determined using the free peptide. The IC50 value can be determined using the free peptide, which optionally can be C-terminally amidated, or can be prepared as an ester or other carboxy amide.
# Binding affinities of chemically synthesized peptides for TPO-R were measured in a competition binding assay. The wells of a microtiter plate were coated with 1 mg streptavidin, blocked with PBS/1% BSA, followed by 50 ng of biotinylated anti-receptor immobilizing antibody (Ab179). The wells were then treated with a 1:10 dilution of soluble TPO-R harvest. Various concentrations of peptide or peptide mimetic were mixed with a constant amount of a truncated form of TPO consisting of residues 1-156 fused to the C-terminus of maltose binding protein (MBP-TPO156). The peptide MBP-TPO156 mixtures were added to the TPO-R coated wells, incubated for 2 hours at 4° C. and then washed with PBS. The amount of MBP-TPO156 that was bound at equilibrium was measured by adding a rabbit anti-sera directed against MBP, followed by alkaline phosphatase conjugated goat anti-rabbit IgG. The amount of alkaline phosphatase in each well was then determined using standard methods.
# The assay is conducted over a range of peptide concentrations and the results are graphed such that the y axis represents the amount of bound MBP-TPO156 and the x axis represents the concentration of peptide or peptide mimetic.
# [2] = Table 5, substitutions in cyclized compound, read-out: EC50 (nM) Cell Prolif.
Compound,"EC50 [1, 2] [nM]","IC50 (TPO-R; Table 5, read-out: IC50) [nM]",further results
"CC[C@@H]1NC(=O)[C@H]([C@@H](C)CC)NC(=O)[C@H](Cc2c[nH]c3ccccc23)NC(=O)[C@H](CCC(=O)O)NC(=O)[C@H](CCCNC(=N)N)NC(=O)[C@H](CC(C)C)NC(=O)[C@H]([C@@H](C)O)NC(=O)[C@@H]2CCCN2C(=O)CNC(=O)[C@H](CC(=O)O)NC(=O)[C@H](C)NC(=O)[C@@H](N)CSSC[C@@H](C(N)=O)NC(=O)[C@H](Cc2ccccc2)NC1=O [S-Abu] (HELM PEPTIDE1{C.A.D.G.P.T.L.R.E.W.I.[Abu].F.C.[am]}$PEPTIDE1,PEPTIDE1,1:R3-14:R3$$$V2.0; N-terminus and C-terminus assumed)",< 500,≤ 500,"EC50 ([1]; Table 6, read-out: EC50 (nM) Cell Prolif.): < 500 nM"
"CC(C)C[C@H](NC(=O)[C@@H](NC(=O)[C@@H]1CCCN1C(=O)CNC(=O)[C@@H](NC(=O)[C@@H](N)Cc1c[nH]cn1)C(C)C)[C@@H](C)O)C(=O)N[C@@H](CCCNC(=N)N)C(=O)N[C@@H](CO)C(=O)NCC(=O)N[C@@H](CSSC[C@H](NC(=O)CNC(=O)[C@H](CO)NC(=O)[C@H](CCCNC(=N)N)NC(=O)[C@H](CC(C)C)NC(=O)[C@@H](NC(=O)[C@@H]1CCCN1C(=O)CNC(=O)[C@@H](NC(=O)[C@@H](N)Cc1c[nH]cn1)C(C)C)[C@@H](C)O)C(N)=O)C(N)=O (HELM PEPTIDE1{H.V.G.P.T.L.R.S.G.C.[am]}|PEPTIDE2{H.V.G.P.T.L.R.S.G.C.[am]}$PEPTIDE1,PEPTIDE2,10:R3-10:R3$$$V2.0)",–,–,"EC50 ([1]; Table 7, dimer compounds, read-out: EC50 (nM) Prolif.): < 200000 nM; IC50 (TPO-R; Table 7, dimer compounds, read-out: IC50): ≤ 200000 nM"
CC[C@H](C)[C@H](NC(C)=O)C(=O)N[C@@H](CCC(=O)O)C(=O)NCC(=O)N1CCC[C@H]1C(=O)N[C@H](C(=O)N[C@@H](CC(C)C)C(=O)N[C@@H](CCCNC(=N)N)C(=O)N[C@@H](CCC(N)=O)C(=O)N[C@@H](Cc1c[nH]c2ccccc12)C(=O)N[C@@H](CC(C)C)C(=O)N[C@@H](C)C(=O)N[C@@H](C)C(=O)N[C@@H](CCCNC(=N)N)C(=O)N[C@@H](C)C(=O)NCCCC[C@H](NC(=O)CCNC(=O)[C@H](C)NC(=O)[C@H](CCCNC(=N)N)NC(=O)[C@H](C)NC(=O)[C@H](C)NC(=O)[C@H](CC(C)C)NC(=O)[C@H](Cc1c[nH]c2ccccc12)NC(=O)[C@H](CCC(N)=O)NC(=O)[C@H](CCCNC(=N)N)NC(=O)[C@H](CC(C)C)NC(=O)[C@@H](NC(=O)[C@@H]1CCCN1C(=O)CNC(=O)[C@H](CCC(=O)O)NC(=O)[C@@H](NC(C)=O)[C@@H](C)CC)[C@@H](C)O)C(N)=O)[C@@H](C)O,–,–,"EC50 ([1]; Table 10, truncations of the dimer, read-out: EC50 (nM) Cell Prolif.): < 500 nM"
"CC[C@H](C)[C@@H]1NC(=O)[C@H](Cc2c[nH]c3ccccc23)NC(=O)[C@H](CCC(=O)O)NC(=O)[C@H](CCCNC(=N)N)NC(=O)[C@H](CC(C)C)NC(=O)[C@H]([C@@H](C)O)NC(=O)[C@@H]2CCCN2C(=O)CNC(=O)[C@H](CC(=O)O)NC(=O)[C@H](C)NC(=O)CSC[C@@H](C(N)=O)NC(=O)CCCCNC1=O [S,F-Ava(thioether)] (HELM PEPTIDE1{[O=C(C[*:3])[*:2]].A.D.G.P.T.L.R.E.W.I.[O=C(CCCCN[*:1])[*:2]].C.[am]}$PEPTIDE1,PEPTIDE1,1:R3-13:R3$$$V2.0; N-terminus and C-terminus assumed)",< 200000,≤ 500,–
"CC[C@H](C)[C@@H]1NC(=O)[C@H](Cc2c[nH]c3ccccc23)NC(=O)[C@H](CCC(=O)O)NC(=O)[C@H](CCCNC(=N)N)NC(=O)[C@H](CC(C)C)NC(=O)[C@H]([C@@H](C)O)NC(=O)[C@@H]2CCCN2C(=O)CNC(=O)[C@H](CC(=O)O)NC(=O)[C@H](C)NC(=O)[C@@H](N)CSSC[C@@H](C(N)=O)NC(=O)CCCCNC1=O [S,F-Ava] (HELM PEPTIDE1{C.A.D.G.P.T.L.R.E.W.I.[O=C(CCCCN[*:1])[*:2]].C.[am]}$PEPTIDE1,PEPTIDE1,1:R3-13:R3$$$V2.0; N-terminus and C-terminus assumed)",< 200000,≤ 500,–
"CC(C)C[C@@H]1NC(=O)[C@H](Cc2c[nH]c3ccccc23)NC(=O)[C@H](CCC(=O)O)NC(=O)[C@H](CCCNC(=N)N)NC(=O)[C@H](CC(C)C)NC(=O)[C@H]([C@@H](C)O)NC(=O)[C@@H](NC(=O)CNC(=O)CN)CSSC[C@@H](C(=O)NCC(=O)NCC(=O)O)NC(=O)[C@H](Cc2ccccc2)NC(=O)CNC(=O)CNC(=O)[C@H](Cc2c[nH]cn2)NC1=O [G G C T L R E W L H G G F C G G] (HELM PEPTIDE1{G.G.C.T.L.R.E.W.L.H.G.G.F.C.G.G}$PEPTIDE1,PEPTIDE1,3:R3-14:R3$$$V2.0; N-terminus and C-terminus assumed; bridges inferred)",–,–,IC50 (TPO-R; read-out: IC50 value): ≤ 500 nM
"CC[C@H](C)[C@@H]1NC(=O)[C@H](Cc2c[nH]c3ccccc23)NC(=O)[C@H](CCC(=O)O)NC(=O)[C@H](CCCNC(=N)N)NC(=O)[C@H](CC(C)C)NC(=O)[C@H]([C@@H](C)O)NC(=O)[C@@H]2CCCN2C(=O)CNC(=O)[C@H](CC(=O)O)NC(=O)[C@H](C)NC(=O)[C@@H](N)CSSC[C@@H](C(N)=O)NC(=O)[C@H](Cc2cccnc2)NC(=O)[C@H](CO)NC1=O [F-(Pyridylala)] (HELM PEPTIDE1{C.A.D.G.P.T.L.R.E.W.I.S.[O=C([C@H](Cc1cccnc1)N[*:1])[*:2]].C.[am]}$PEPTIDE1,PEPTIDE1,1:R3-14:R3$$$V2.0; N-terminus and C-terminus assumed)",< 500,≤ 500,–
"CC[C@H](C)[C@@H]1NC(=O)[C@@H](N)CSSC[C@@H](C(N)=O)NC(=O)[C@H](C)NC(=O)[C@H](CCCNC(=N)N)NC(=O)[C@H](C)NC(=O)[C@H](C)NC(=O)[C@H](CC(C)C)NC(=O)[C@H](Cc2c[nH]c3ccccc23)NC(=O)[C@H](CCC(N)=O)NC(=O)[C@H](CCCNC(=N)N)NC(=O)[C@H](CC(C)C)NC(=O)[C@H]([C@@H](C)O)NC(=O)[C@@H]2CCCN2C(=O)CNC(=O)[C@H](CCC(=O)O)NC1=O (HELM PEPTIDE1{C.I.E.G.P.T.L.R.Q.W.L.A.A.R.A.C.[am]}$PEPTIDE1,PEPTIDE1,1:R3-16:R3$$$V2.0)",–,–,"IC50 (TPO-R; Table 9, read-out: IC50): ≤ 500 nM"
"CC[C@H](C)[C@@H]1NC(=O)[C@H](Cc2c[nH]c3ccccc23)NC(=O)[C@H](CCC(=O)O)NC(=O)[C@H](CCCNC(=N)N)NC(=O)[C@H](CC(C)C)NC(=O)[C@H]([C@@H](C)O)NC(=O)[C@@H]2CCCN2C(=O)CNC(=O)[C@H](CC(=O)O)NC(=O)[C@H](C)NC(=O)[C@@H](N)CSSC[C@@H](C(N)=O)NC(=O)[C@H](Cc2ccccc2)NC(=O)[C@H](C)N(C)C1=O [S-(N-Me-Ala)] (HELM PEPTIDE1{C.A.D.G.P.T.L.R.E.W.I.[meA].F.C.[am]}$PEPTIDE1,PEPTIDE1,1:R3-14:R3$$$V2.0; N-terminus and C-terminus assumed)",< 200000,≤ 200000,–
"CC[C@H](C)[C@@H]1NC(=O)[C@H](Cc2c[nH]c3ccccc23)NC(=O)[C@H](CCC(=O)O)NC(=O)[C@H](CCCNC(=N)N)NC(=O)[C@H](CC(C)C)NC(=O)[C@H]([C@@H](C)O)NC(=O)[C@@H]2CCCN2C(=O)CNC(=O)[C@H](CC(=O)O)NC(=O)[C@H](C)NC(=O)[C@@H](NC(=O)CNC(=O)CN)CSSC[C@@H](C(=O)NCC(=O)NCC(=O)O)NC(=O)[C@H](Cc2ccccc2)NC(=O)[C@H](CO)NC1=O [G G C A D G P T L R E W I S F C G G] (HELM PEPTIDE1{G.G.C.A.D.G.P.T.L.R.E.W.I.S.F.C.G.G}$PEPTIDE1,PEPTIDE1,3:R3-16:R3$$$V2.0; N-terminus and C-terminus assumed; bridges inferred)",–,–,"IC50 (TPO-R; Table 3, read-out: Affinity (IC50)): ≤ 500 nM"
